# Measurements as given in the supplement of paper PMC10307832.
# Assays:
# Assay in all cases: relative viability (nuclei count vs DMSO), 5 days (fraction); higher = more cells survive
# Quizartinib + Phenformin = compound: CC(C)(C)c1cc(NC(=O)Nc2ccc(-c3cn4c(n3)sc3cc(OCCN5CCOCC5)ccc34)cc2)no1 [Quizartinib] + N=C(N)NC(=N)NCCc1ccccc1 [Phenformin] (partner 250 µM)
# Method in brief: (§1)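 Nuclei were stained with Hoechst during a one-step fixation (final 0.05% Triton X-100, 1% formaldehyde, 1 ug/ml Hoechst) carried out 5 days after dosing, then counted on 4× images. The cells, lung cancer lines in 1536-well plates, had been dosed by pin tool the day after seeding with one drug alone or a fixed anchor-drug dose plus five library-drug doses (not always all listed) in √10 steps. Relative viability is the nuclei count in treated wells divided by that in vehicle wells, and each value is the median of duplicate plates.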
# YM155 + Luminespib = compound: COCC[n+]1c2c(n(Cc3cnccn3)c1C)C(=O)c1ccccc1C2=O [YM155] + CCNC(=O)c1noc(-c2cc(C(C)C)c(O)cc2O)c1-c1ccc(CN2CCOCC2)cc1 [Luminespib] (partner 0.01 µM)
# Method in brief: as §1
# YM155 + Alpelisib = compound: COCC[n+]1c2c(n(Cc3cnccn3)c1C)C(=O)c1ccccc1C2=O [YM155] + Cc1nc(NC(=O)N2CCC[C@H]2C(N)=O)sc1-c1ccnc(C(C)(C)C(F)(F)F)c1 [Alpelisib] (partner 2 µM)
# Method in brief: as §1
# Quizartinib + Navitoclax = compound: CC(C)(C)c1cc(NC(=O)Nc2ccc(-c3cn4c(n3)sc3cc(OCCN5CCOCC5)ccc34)cc2)no1 [Quizartinib] + CC1(C)CCC(c2ccc(Cl)cc2)=C(CN2CCN(c3ccc(C(=O)NS(=O)(=O)c4ccc(N[C@H](CCN5CCOCC5)CSc5ccccc5)c(S(=O)(=O)C(F)(F)F)c4)cc3)CC2)C1 [Navitoclax] (partner 0.5 µM)
# Method in brief: as §1
Cell Line,relative viability (Quizartinib + Phenformin; first compound 0.001 µM),relative viability (Quizartinib + Phenformin; first compound 0.003162 µM),relative viability (Quizartinib + Phenformin; first compound 0.01 µM),relative viability (Quizartinib + Phenformin; first compound 0.03162 µM),relative viability (Quizartinib + Phenformin; first compound 0.1 µM),relative viability (YM155 + Luminespib; first compound 0.002 µM),relative viability (YM155 + Luminespib; first compound 0.006325 µM),relative viability (YM155 + Luminespib; first compound 0.02 µM),relative viability (YM155 + Luminespib; first compound 0.06325 µM),relative viability (YM155 + Alpelisib; first compound 0.002 µM),relative viability (YM155 + Alpelisib; first compound 0.006325 µM),relative viability (YM155 + Alpelisib; first compound 0.02 µM),relative viability (YM155 + Alpelisib; first compound 0.06325 µM),relative viability (Quizartinib + Navitoclax; first compound 0.001 µM),relative viability (Quizartinib + Navitoclax; first compound 0.003162 µM),relative viability (Quizartinib + Navitoclax; first compound 0.01 µM),relative viability (Quizartinib + Navitoclax; first compound 0.03162 µM),relative viability (Quizartinib + Navitoclax; first compound 0.1 µM)
NCI-H2342,0.595,0.629,0.539,0.616,0.688,0.721,0.788,0.738,0.746,–,–,–,–,–,–,–,–,–
CAL-12T,0.587,0.533,0.66,0.435,0.39,0.362,0.766,0.414,0.183,1.02,1.29,0.921,0.25,1.15,1.1,1.33,1.24,1.32
NCI-H1395,0.437,0.447,0.46,0.468,0.494,0.934,0.81,0.798,0.971,1.13,1.24,1.14,1.12,1.05,1.07,1.14,1.59,1.36
NCI-H1299,–,–,–,–,–,–,–,–,–,0.993,1.01,1.05,1.07,–,1.03,1.02,1.01,1.04
NCI-H1703,–,–,–,–,–,–,–,–,–,0.292,0.394,0.373,0.339,0.978,0.474,0.234,0.214,0.296
HCC-15,–,0.461,0.396,–,0.436,0.361,0.369,0.311,0.161,0.96,0.826,0.927,0.879,0.756,0.652,0.665,0.689,0.724
SW 900,0.618,0.685,–,0.586,0.72,0.179,0.188,0.164,0.177,–,–,–,–,–,–,–,–,–
NCI-H661,0.274,0.289,0.3,0.224,0.194,0.841,0.948,0.927,0.393,0.637,0.657,0.862,0.59,–,–,–,–,–
NCI-H650,0.433,0.454,0.409,0.399,0.476,0.768,0.803,0.75,0.89,1.14,1.07,1.15,0.992,–,–,–,–,–
ABC-1,0.237,0.322,0.227,0.261,0.18,0.439,0.386,0.169,0.256,0.85,0.368,0.264,0.243,–,–,–,–,–
EBC-1,–,–,–,–,–,–,–,–,–,0.786,0.862,0.95,0.9,0.411,0.436,0.524,0.479,0.527
IA-LM,–,–,–,–,–,–,–,–,–,0.578,0.907,0.738,0.644,0.836,0.908,0.776,0.836,0.718
NCI-H522,0.591,0.652,0.645,0.622,0.542,1.21,1.1,1.04,1.28,–,–,–,–,–,–,–,–,–
LCLC-103H,0.306,0.276,0.341,0.337,0.361,0.927,0.832,0.846,1.04,1,0.997,0.946,1.09,–,–,–,–,–
A549,0.166,0.155,0.201,0.117,0.162,–,–,–,–,0.673,0.759,0.838,0.35,1.26,1.11,1.25,–,1.13
NCI-H1623,0.455,0.645,0.599,0.595,0.634,0.43,0.464,0.458,0.497,–,–,–,–,–,–,–,–,–
NCI-H1650,0.418,0.585,0.382,–,0.417,0.181,0.197,0.175,0.228,–,–,–,–,0.928,1.25,1.35,–,1.24
HCC-366,0.615,0.549,0.577,0.601,0.547,–,–,–,–,0.365,0.428,0.375,0.496,0.799,1.01,0.957,1.06,0.903
NCI-H1563,0.648,0.708,0.656,0.514,0.533,0.554,0.455,0.542,0.555,0.916,0.977,0.895,0.902,–,–,–,–,–
NCI-H358,0.292,0.4,0.327,0.115,0.299,0.222,0.374,0.352,0.311,0.801,0.871,0.911,0.283,–,–,–,–,–
Calu-6,–,–,–,–,–,–,–,–,–,0.937,0.578,0.309,0.252,0.749,0.877,0.923,0.701,0.759
HCC-78,0.687,0.832,0.707,0.574,0.73,–,–,–,–,0.341,0.436,0.361,0.438,0.813,0.868,0.766,0.598,0.842
ChaGo-K-1,0.516,0.494,0.455,0.443,0.421,0.651,0.509,0.715,0.714,–,–,–,–,0.439,1.02,1.02,–,1.52
